In US20250214924A1, “NOVEL COMPOUNDS AND USES THEREOF” (ACTIVON CO., LTD., priority 2022, published 2025):

Assays:
[1] = test system: HaCaT cells; assay: antioxidant effect against H2O2 oxidative toxicity (Experimental Example 2); assay type: cell-based, human; conditions: for Number of fluorescent cells (Cell number): untreated 15, H2O2 only 255
[2] = test system: H2O2-induced reactive oxygen species generation; assay: DCF-DA staining, H2O2-induced reactive oxygen species generation (Experimental Example 3); assay type: cell-based; conditions: for Number of fluorescent cells (Cell number): DCF-DA, untreated 15, H2O2 only 255
Experimental: To investigate the inhibitory effect of the compound prepared in Embodiment 1 on H2O2-induced reactive oxygen species generation, DCF-DA staining was performed, and the results are shown in Table 3, FIG. 4, and FIG. 5 below. In the experiment, […] were seeded at a density of 2×10^5 cells per dish in a 35 pi dish and incubated for 24 hours. Subsequently, the cells were treated with the compound prepared in Embodiment 1 and further incubated for 24 hours. After 10 minutes of loading with 5 mM DCF-DA, the cells were examined under a fluorescence microscope, and the number of DCF-DA fluorescent cells was counted using Image J.

[3] = test system: human keratinocytes (HaCaT cells); assay: WST-1 assay, cytotoxicity / skin irritation (Experimental Example 1); assay type: cell-based; conditions: for Cell Viability: 24 hours, HaCaT cells, untreated = 100%
Experimental: To confirm whether the compound prepared in Embodiment 1 causes toxicity in skin cells and induces skin irritation, a WST-1 assay was conducted, and the results are shown in Table 1 and FIG. 2 below. In the experiment, human keratinocytes (HaCaT cells) were seeded at a density of 1×10^4 cells per well in a 96-well plate with DMEM (Dulbecco's Modified Eagle Medium) containing 10% FBS (Fetal Bovine Serum) and 1% Antibiotic-Antimycotic, and incubated for 24 hours in a constant temperature chamber at 37° C. with 5% CO2. Subsequently, the cells were treated with the compound prepared in Embodiment 1 and incubated for an additional 24 hours.

[4] = various concentrations, compared to positive control group (H2O2 treatment)

## O=C1O[C@H]([C@@H](O)CO)C(O)=C1O [Ascorbic acid, reference compound]
[1]; H2O2 1 mM + substance 10 uM
  Number of fluorescent cells (Cell number): 170 Cell number
[2]; H2O2 + substance 10 uM
  Number of fluorescent cells (Cell number): 170 Cell number

## O=C(O)/C=C/c1ccc(O)c(O)c1 [Caffeic acid, reference compound]
[1]; H2O2 1 mM + substance 10 uM
  Number of fluorescent cells (Cell number): 250 Cell number
[2]; H2O2 + substance 10 uM
  Number of fluorescent cells (Cell number): 250 Cell number

## O=C(/C=C/c1ccc(O)c(O)c1)OCc1ccc(OC(=O)/C=C/c2ccc(O)c(O)c2)cc1 [Embodiment 1, 4-(((E)-3-(3,4-dihydroxyphenyl)acryloyl)oxy)benzyl (E)-3-(3,4-dihydroxyphenyl)acrylate]
[3]; 5 uM
  Cell Viability: 95.9%
[3]; 10 μM treatment
  change in cell viability: cell viability increased
[3]; 10 uM
  Cell Viability: 118.9%
[3]; concentrations of 5 and 10 μM
  toxicity to Keratinocyte (HaCaT) cells: did not show toxicity
[1]; H2O2 1 mM + substance 5 uM
  Number of fluorescent cells (Cell number): 60 Cell number
[1]; H2O2 1 mM + substance 10 uM
  Number of fluorescent cells (Cell number): 42 Cell number
[1]; [4]
  increase in reactive oxygen species caused by H2O2 treatment: significantly reduced
[2]; H2O2 + substance 5 uM
  Number of fluorescent cells (Cell number): 60 Cell number
[2]; H2O2 + substance 10 uM
  Number of fluorescent cells (Cell number): 42 Cell number
[2]; [4]
  increase in reactive oxygen species caused by H2O2 treatment: significantly reduced
